Measurements from patent US20240207427A1, “SELECTIVE DRUG RELEASE FROM INTERNALIZED CONJUGATES OF BIOLOGICALLY ACTIVE COMPOUNDS” (priority 2021, published 2024).
Where two headings read alike, the source gives them in different places.

Columns and labels:
Type in all cases: cell-based
[1] = system: renal carcinoma cells (786-O); test: In vitro potency (CellTiter-Glo, 96 h), 786-O; conditions: Homo sapiens, 786-0, 96 h
Summary of the method: (§1)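 Log-phase cells were seeded for 24 h in RPMI 1640 with 20% FBS, then exposed to serially diluted antibody-drug conjugates or free camptothecin drug for 4 days at 37 °C. Growth inhibition was read by luminescence, and IC50 values were reported in ng/mL and nmol/L.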

Ls174T cells = test: In vitro potency (CellTiter-Glo, 96 h), Ls174T; conditions: Homo sapiens, LS174T
Summary of the method: as §1

[2] = system: Hodgkin's lymphoma cells (L540cy); test: In vitro potency (CellTiter-Glo, 96 h), L540cy
Summary of the method: as §1

[3] = system: non-small-cell lung cancer cells (Calu1); test: In vitro potency (CellTiter-Glo, 96 h), Calu1; conditions: Homo sapiens, Calu-1, 96 h
Summary of the method: (§2)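 Seed log-phase cells 24 h (RPMI 1640, 20% FBS); add ADC serial dilutions; incubate 96 h, 37 °C; read luminescence; IC50 in ng/mL.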

[4] = system: pancreatic cancer cells (BxPC3); test: In vitro potency (CellTiter-Glo, 96 h), BxPC3; conditions: Homo sapiens, BXPC-3, 96 h
Summary of the method: (§3)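 Cells in log-phase growth seeded 24 h in RPMI 1640 with 20% FBS, then exposed to serially diluted ADC or CPT free drug for 96 h at 37 °C. Growth inhibition read by CellTiter-Glo luminescence; IC50 reported in ng/mL or nmol/L.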

[5] = system: anaplastic large cell lymphoma cells (DELBVR); test: In vitro potency (CellTiter-Glo, 96 h), DELBVR
Summary of the method: as §1

[6] = system: anaplastic large cell lymphoma cells (Karpas299); test: In vitro potency (CellTiter-Glo, 96 h), Karpas299; conditions: Homo sapiens, KARPAS-299, 96 h
Summary of the method: as §1

[7] = system: B-lymphocyte cancer cells (SU-DHL4); test: In vitro potency (CellTiter-Glo, 96 h), SU-DHL-4; conditions: Homo sapiens, SU-DHL-4, 96 h
Summary of the method: as §1

[8] = system: breast cancer cells (MDA-MB-231); test: In vitro potency (CellTiter-Glo, 96 h), MDA-MB-231; conditions: Homo sapiens, MDA-MB-231, 96 h
Summary of the method: as §1

[9] = system: acute myeloid leukemia cells (MOLM-13); test: In vitro potency (CellTiter-Glo, 96 h), MOLM-13; conditions: Homo sapiens, MOLM-13, 96 h
Summary of the method: as §3

melanoma cells (A2058) = test: In vitro potency (CellTiter-Glo, 96 h), A2058; conditions: Homo sapiens, A2058, 96 h
Summary of the method: as §2

[10] = system: anaplastic large cell lymphoma cells (DEL); test: In vitro potency (CellTiter-Glo, 96 h), DEL
Summary of the method: as §1

[11] = read-out: 786-O IC50, camptothecin free drug, 96 h
[12] = 96 h, read-out: Ls174T IC50, camptothecin free drug, 96 h
[13] = read-out: L540cy IC50, camptothecin free drug, 96 h
[14] = read-out: BxPC3 IC50, camptothecin free drug, 96 h
[15] = read-out: DELBVR IC50, camptothecin free drug, 96 h
[16] = read-out: Karpas299 IC50, camptothecin free drug, 96 h
[17] = read-out: SU-DHL-4 IC50, camptothecin free drug, 96 h
[18] = read-out: MDAMB231 IC50, camptothecin free drug, 96 h
[19] = read-out: MOLM-13 IC50, camptothecin free drug, 96 h
[20] = read-out: DEL IC50, camptothecin free drug, 96 h
[21] = read-out: IC50 (nmol/L) 786-O, CPT free drugs, Table 24, CellTiter-Glo after 96 h exposure
[22] = 96 h, read-out: IC50 (nmol/L) Ls174T, CPT free drugs, Table 24, CellTiter-Glo after 96 h exposure
[23] = read-out: IC50 (nmol/L) L540cy, CPT free drugs, Table 24, CellTiter-Glo after 96 h exposure
[24] = read-out: IC50 (nmol/L) BxPC3, CPT free drugs, Table 24, CellTiter-Glo after 96 h exposure
[25] = read-out: IC50 (nmol/L) DELBVR, CPT free drugs, Table 24, CellTiter-Glo after 96 h exposure
[26] = read-out: IC50 (nmol/L) Karpas299, CPT free drugs, Table 24, CellTiter-Glo after 96 h exposure
[27] = read-out: IC50 (nmol/L) SU-DHL-4, CPT free drugs, Table 24, CellTiter-Glo after 96 h exposure
[28] = read-out: IC50 (nmol/L) MDAMB231, CPT free drugs, Table 24, CellTiter-Glo after 96 h exposure
[29] = read-out: IC50 (nmol/L) MOLM-13, CPT free drugs, Table 24, CellTiter-Glo after 96 h exposure
[30] = read-out: IC50 (nmol/L) DEL, CPT free drugs, Table 24, CellTiter-Glo after 96 h exposure
[31] = CPT free drugs, Table 24, CellTiter-Glo after 96 h exposure, read-out: IC50 (nmol/L) 786-O
[32] = CPT free drugs, Table 24, CellTiter-Glo after 96 h exposure, read-out: IC50 (nmol/L) Ls174T
[33] = CPT free drugs, Table 24, CellTiter-Glo after 96 h exposure, read-out: IC50 (nmol/L) L540cy
[34] = CPT free drugs, Table 24, CellTiter-Glo after 96 h exposure, read-out: IC50 (nmol/L) Calu1
[35] = CPT free drugs, Table 24, CellTiter-Glo after 96 h exposure, read-out: IC50 (nmol/L) BxPC3
[36] = CPT free drugs, Table 24, CellTiter-Glo after 96 h exposure, read-out: IC50 (nmol/L) DELBVR
[37] = CPT free drugs, Table 24, CellTiter-Glo after 96 h exposure, read-out: IC50 (nmol/L) Karpas299
[38] = CPT free drugs, Table 24, CellTiter-Glo after 96 h exposure, read-out: IC50 (nmol/L) SU-DHL-4
[39] = CPT free drugs, Table 24, CellTiter-Glo after 96 h exposure, read-out: IC50 (nmol/L) MDAMB231
[40] = CPT free drugs, Table 24, CellTiter-Glo after 96 h exposure, read-out: IC50 (nmol/L) MOLM-13
[41] = CPT free drugs, Table 24, CellTiter-Glo after 96 h exposure, read-out: IC50 (nmol/L) A2058
[42] = CPT free drugs, Table 24, CellTiter-Glo after 96 h exposure, read-out: IC50 (nmol/L) DEL

Structure (SMILES): CC[C@@]1(O)C(=O)OCc2c1cc1n(c2=O)Cc2c-1nc1cc3c(cc1c2CNCCCS(N)(=O)=O)OCO3 [Compound 7e]
- IC50 [1, 11]: 25 nmol/L
- IC50 (Ls174T cells; [12]): 17 nmol/L
- IC50 [2, 13]: 13 nmol/L
- IC50 ([3]; read-out: Calu1 IC50): 503 nmol/L
- IC50 [4, 14]: 21 nmol/L
- IC50 [5, 15]: 14 nmol/L
- IC50 [6, 16]: 27 nmol/L
- IC50 [7, 17]: 16 nmol/L
- IC50 [8, 18]: 124 nmol/L
- IC50 [9, 19]: 257 nmol/L
- IC50 (melanoma cells (A2058); read-out: A2058 IC50): 5 nmol/L
- IC50 [10, 20]: 8 nmol/L

Structure (SMILES): CC[C@@]1(O)C(=O)OCc2c1cc1n(c2=O)Cc2c-1nc1cc(F)c(C)c(C)c1c2CN [Compound 2s]
- IC50 [1, 21]: 3 nmol/L
- IC50 (Ls174T cells; [22]): 3.7 nmol/L
- IC50 [2, 23]: 2 nmol/L
- IC50 ([3]; read-out: IC50 (nmol/L) Calu1): 22 nmol/L
- IC50 [4, 24]: 7 nmol/L
- IC50 [5, 25]: 1 nmol/L
- IC50 [6, 26]: 2 nmol/L
- IC50 [7, 27]: 2 nmol/L
- IC50 [8, 28]: 2 nmol/L
- IC50 [9, 29]: 18 nmol/L
- IC50 (melanoma cells (A2058); read-out: IC50 (nmol/L) A2058): 1 nmol/L
- IC50 [10, 30]: 1 nmol/L

Structure (SMILES): CC[C@@]1(O)C(=O)OCc2c1cc1n(c2=O)Cc2c-1nc1ccc(C)cc1c2CN [Compound 2a]
- IC50 [1, 31]: 7 nmol/L
- IC50 (Ls174T cells; [32]): 3.9 nmol/L
- IC50 [2, 33]: 4 nmol/L
- IC50 [3, 34]: 42 nmol/L
- IC50 [4, 35]: 20 nmol/L
- IC50 [5, 36]: 3 nmol/L
- IC50 [6, 37]: 9 nmol/L
- IC50 [7, 38]: 4 nmol/L
- IC50 [8, 39]: 5 nmol/L
- IC50 [9, 40]: 29 nmol/L
- IC50 (melanoma cells (A2058); [41]): 3 nmol/L
- IC50 [10, 42]: 1 nmol/L

Structure (SMILES): CC[C@@]1(O)C(=O)OCc2c1cc1n(c2=O)Cc2c-1nc1cc3c(cc1c2CNCCS(N)(=O)=O)OCO3 [Compound 7d]
- IC50 [1, 11]: 37 nmol/L
- IC50 (Ls174T cells; [12]): 18 nmol/L
- IC50 [2, 13]: 16 nmol/L
- IC50 ([3]; read-out: Calu1 IC50): 1000 nmol/L
- IC50 [4, 14]: 38 nmol/L
- IC50 [5, 15]: 13 nmol/L
- IC50 [6, 16]: 39 nmol/L
- IC50 [7, 17]: 20 nmol/L
- IC50 [8, 18]: 195 nmol/L
- IC50 [9, 19]: 61 nmol/L
- IC50 (melanoma cells (A2058); read-out: A2058 IC50): 10 nmol/L
- IC50 [10, 20]: 8 nmol/L

Structure (SMILES): CC[C@@]1(O)C(=O)OCc2c1cc1n(c2=O)Cc2c-1nc1ccc3c(c1c2CN)OCC3 [Compound 2t]
- IC50 [1, 31]: 101 nmol/L
- IC50 (Ls174T cells; [32]): 18 nmol/L
- IC50 [2, 33]: 43 nmol/L
- IC50 [3, 34]: ≥ 1000 nmol/L
- IC50 [4, 35]: 230 nmol/L
- IC50 [5, 36]: 33 nmol/L
- IC50 [6, 37]: 133 nmol/L
- IC50 [7, 38]: 51 nmol/L
- IC50 [8, 39]: 73 nmol/L
- IC50 [9, 40]: 179 nmol/L
- IC50 (melanoma cells (A2058); [41]): 39 nmol/L
- IC50 [10, 42]: 18 nmol/L

Structure (SMILES): CC[C@@]1(O)C(=O)OCc2c1cc1n(c2=O)Cc2c-1nc1cc(F)c(C)c(C=C(C)C)c1c2CN [Compound 6, (S)-11-(aminomethyl)-4-ethyl-8-fluoro-4-hydroxy-9-methyl-10-(2-methylprop-1-en-1-yl)-1,12-dihydro-14H-pyrano[3′,4′:6,7]indolizino[1,2-b]quinoline-3,14(4H)-dione]
- IC50 ([1]; read-out: 786-O IC50, Table 28, CPT free drugs, renal carcinoma cells 786-O, 96 h, CellTiter-Glo): 5 nmol/L
- IC50 (Ls174T cells; 96 h, read-out: Ls174T IC50, Table 28, CPT free drugs, Ls174T cells, 96 h, CellTiter-Glo): 21 nmol/L
- IC50 ([2]; read-out: L540cy IC50, Table 28, CPT free drugs, Hodgkin's lymphoma cells L540cy, CellTiter-Glo): 4 nmol/L
- IC50 ([3]; read-out: Calu1 IC50): 17 nmol/L
- IC50 ([4]; read-out: BxPC3 IC50, Table 28, CPT free drugs, pancreatic cancer cells BxPC3, 96 h, CellTiter-Glo): 8 nmol/L
- IC50 ([5]; read-out: DELBVR IC50, Table 28, CPT free drugs, anaplastic large cell lymphoma cells DELBVR, CellTiter-Glo): 3 nmol/L
- IC50 ([6]; read-out: Karpas299 IC50, Table 28, CPT free drugs, anaplastic large cell lymphoma cells Karpas299, 96 h, CellTiter-Glo): 4 nmol/L
- IC50 ([7]; read-out: SU-DHL-4 IC50, Table 28, CPT free drugs, B-lymphocyte cancer cells SU-DHL4, 96 h, CellTiter-Glo): 2 nmol/L
- IC50 ([8]; read-out: MDAMB231 IC50, Table 28, CPT free drugs, breast cancer cells MDA-MB-231, 96 h, CellTiter-Glo): 7 nmol/L
- IC50 ([9]; read-out: MOLM-13 IC50, Table 28, CPT free drugs, acute myeloid leukemia cells MOLM-13, 96 h, CellTiter-Glo): 4 nmol/L
- IC50 (melanoma cells (A2058); read-out: A2058 IC50): 5 nmol/L
- IC50 ([10]; read-out: DEL IC50, Table 28, CPT free drugs, anaplastic large cell lymphoma cells DEL, CellTiter-Glo): 1 nmol/L

Structure (SMILES): CC[C@@]1(O)C(=O)OCc2c1cc1n(c2=O)Cc2c-1nc1cc(F)c(C)c(Cl)c1c2CN [Compound 2y]
- IC50 [1, 21]: 3 nmol/L
- IC50 (Ls174T cells; [22]): 3 nmol/L
- IC50 [2, 23]: 1 nmol/L
- IC50 ([3]; read-out: IC50 (nmol/L) Calu1): 15 nmol/L
- IC50 [4, 24]: 6 nmol/L
- IC50 [5, 25]: 1 nmol/L
- IC50 [6, 26]: 2 nmol/L
- IC50 [7, 27]: 1 nmol/L
- IC50 [8, 28]: 15 nmol/L
- IC50 [9, 29]: 16 nmol/L
- IC50 (melanoma cells (A2058); read-out: IC50 (nmol/L) A2058): 1 nmol/L
- IC50 [10, 30]: 1 nmol/L

Structure (SMILES): CC[C@@]1(O)C(=O)OCc2c1cc1n(c2=O)Cc2c-1nc1ccc(OC)cc1c2CN [Compound 2d]
- IC50 [1, 31]: 5 nmol/L
- IC50 (Ls174T cells; [32]): 3.7 nmol/L
- IC50 [2, 33]: 2 nmol/L
- IC50 [3, 34]: 43 nmol/L
- IC50 [4, 35]: 12 nmol/L
- IC50 [5, 36]: 1 nmol/L
- IC50 [6, 37]: 7 nmol/L
- IC50 [7, 38]: 4 nmol/L
- IC50 [8, 39]: 4 nmol/L
- IC50 [9, 40]: 25 nmol/L
- IC50 (melanoma cells (A2058); [41]): 2 nmol/L
- IC50 [10, 42]: 1 nmol/L
